Assays:
Assay type in all cases: cell-based
[1] = system: HCT116 FOP control reporter cell line; experiment: HCT116 FOP control vector reporter assay (non-functional TCF elements); settings: Homo sapiens, HCT-116, 36 h, HCT116 FOP control reporter cells, luciferase expression, 36 hours incubation, 50 μM to 15 nM; read-out: HCT116 FOPFlash IC50
Method in brief: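 Stable HCT116 line carrying the non-functional FOP luciferase construct, 10000 cells/well plated 24 hrs before. Compounds 50 μM to 15 nM (3.16-fold steps) in CAFTY buffer pH 7.4 with 2 mM Ca2+, 36 hours at 37° C; luciferase luminescence read.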

wildtype Wnt pathway = experiment: HEK293 Super TopFlash cellular reporter assay, Wnt-3a stimulated (wildtype Wnt pathway); settings: Homo sapiens; HEK293 TOP reporter cells, EC50 concentration of recombinant Wnt-3a, 16 hours incubation; read-out: HEK TOP OncoFlash IC50
Method in brief: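 Stable HEK293 Super TopFlash and FOP reporter cells stimulated with recombinant human Wnt-3a (2500–5 ng/ml, two-fold steps). Compounds tested 50 μM to 15 nM in 3.16-fold steps in CAFTY buffer pH 7.4 with 2 mM Ca2+ and 0.01% BSA; luciferase read-out.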

[2] = system: HEK293 FOP control reporter cell line; experiment: HEK293 FOP control vector reporter assay; settings: Homo sapiens; HEK293 FOP control reporter cells, EC50 concentration of recombinant Wnt-3a, 16 hours incubation; read-out: HEK FOP IC50
Method in brief: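 Stable HEK293 cells carrying FOP control vector (non-functional TCF sites), 10000 cells/well plated 24 h before, stimulated with recombinant human Wnt-3a at 2500–5 ng/ml in two-fold steps. Compounds from 50 μM to 15 nM (3.16-fold) in CAFTY buffer pH 7.4 with 2 mM Ca2+, 0.01% BSA, run in parallel with TOP line; luciferase read-out.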

[3] = system: constitutive active colorectal cancer cell (CRC) Wnt pathway; experiment: HCT116 Super TopFlash cellular reporter assay (constitutive active Wnt pathway); settings: Homo sapiens, HCT-116, 36 h, HCT116 TOP reporter cells, luciferase expression, 36 hours incubation, 50 μM to 15 nM
Method in brief: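 HCT116 cells (β-catenin ΔS45) stably carrying Super TopFlash, with a parallel FOP-control line, were plated 24 h ahead. They were exposed 36 h at 37 °C, 5% CO2 to compound from a 50 μM–15 nM, 3.16-fold pre-dilution series in CAFTY buffer (pH 7.4, 2 mM Ca2+, 0.01% BSA). Wnt signalling was read as luciferase luminescence.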

| IC50 [1] [µM] | IC50 (wildtype Wnt pathway) [nM] | IC50 [3] [nM] | SMILES | IC50 [2] [µM] |
| --- | --- | --- | --- | --- |
| ≥ 50 | 280 | 48.8 | CSc1ccc(C(=O)Nc2ccc(-c3ccccc3)cc2)cc1NC(=O)CN1CCOCC1 [Example 109, N-(biphenyl-4-yl)-4-(methylsulfanyl)-3-[(morpholin-4-ylacetyl)amino]benzamide] | ≥ 50 |
| ≥ 50 | 77 | 83.2 | O=C(CN1CCOCC1)Nc1cc(C(=O)Nc2ccc(-c3ccccc3)cc2)ccc1OC1CC1 [Example 112, N-(biphenyl-4-yl)-4-(cyclopropyloxy)-3-[(morpholin-4-ylacetyl)amino]benzamide] | ≥ 50 |
| 21 | 36 | 15.8 | CN1CCN(C2(C(=O)Nc3cc(C(=O)Nc4ccc(-c5ccccc5)cc4)ccc3OC3CC3)CC2)CC1 [Example 114, N-(biphenyl-4-yl)-4-(cyclopropyloxy)-3-({[1-(4-methylpiperazin-1-yl)cyclopropyl]carbonyl}amino)benzamide] | ≥ 50 |
| ≥ 50 | 170 | 36.2 | O=C(Nc1ccc(-c2ccccc2)cc1)c1ccc(OC2CC2)c(NC(=O)C2(N3CCN(C4CC4)CC3)CC2)c1 [Example 115, N-(biphenyl-4-yl)-4-(cyclopropyloxy)-3-({[1-(4-cyclopropylpiperazin-1-yl)cyclopropyl]carbonyl}amino)benzamide] | ≥ 50 |
| ≥ 50 | 110 | 34 | CS(=O)(=O)Cc1ccc(C(=O)Nc2ccc(-c3ccccc3)cc2)cc1NC(=O)CN1CCOCC1 [Example 124, N-(biphenyl-4-yl)-4-[(methylsulfonyl)methyl]-3-[(morpholin-4-ylacetyl)amino]benzamide] | 11 |
| ≥ 50 | 110 | 44.5 | O=C(CN1CCOCC1)Nc1cc(C(=O)Nc2ccc(-c3ccccc3)cc2)ccc1OCC(F)(F)F [Example 127, N-(biphenyl-4-yl)-3-[(morpholin-4-ylacetyl)amino]-4-(2,2,2-trifluoroethoxy)benzamide] | 31 |
